Source: patent US10507218B2, “Treatment of cardiovascular disease by using gallium compounds to bind calcified lesions” (LIPIDRISK, LLC, priority 2018, dated 2019)

Key:
[1] = Treatment of plantar fasciitis by topical gallium nitrate solution (single patient); type: in vivo, human
Procedure: The patient was having continuous severe pain from the plantar fasciitis for over six months after treatments with injected cortisone, special braces and hydrotherapy none of which gave relief.
Patient was treated with 5 ml's of 14% gallium nitrate solution applied to the bottom of the affected foot for 30 minutes every other day for three treatments. After each treatment the remaining solution was washed off and the exact amount of absorbed gallium nitrate was not measured. […] The plantar fasciitis has not returned for 10 years. The pain elimination from reduced inflammation is an indicator that the gallium ions bonded to the calcified structures at an inflammation site.

[2] = Treatment of rheumatoid arthritis of the wrist by topical gallium nitrate solution (single patient); type: in vivo, human; conditions: about 100 mg
Procedure: Patient had persistent rheumatoid arthritis of the wrist for over six months and was treated with a single dose of ¾ ml of 14% gallium nitrate solution, about 100 mg, as a topical application for one hour. […] Again, the pain elimination from reduced inflammation is an indicator that the gallium ions bonded to the calcified structures at an inflammation site.

[3] = set-up: dose or concentration left out as unconfirmed; conditions: of gallium nitrate over 5-7 days; cited from earlier work
[4] = animal studies; cited from earlier work

With O=[N+]([O-])[O-].O=[N+]([O-])[O-].O=[N+]([O-])[O-].[Ga+3] [gallium nitrate] the “pain relief after each treatment” value ([1]; 5 ml of 14% gallium nitrate solution on bottom of affected foot, 30 minutes, every other day, three treatments) was “complete relief of pain for several hours after each treatment”, the “time without return of plantar fasciitis” value ([1]; after three topical treatments) was ≥ 10 years and the “pain outcome after the third treatment” value ([1]; one week after third topical treatment) was “the pain disappeared completely one week later”. The immediate pain relief ([2]; single topical dose of ¾ ml of 14% gallium nitrate solution, one hour) was “Some pain relief was noticed immediately”, the “arthritic pain after two months” value ([2]; single topical dose) was “the arthritic pain was not noticeable” and the “duration without arthritic pain in the wrist” value ([2]; single topical dose) was “has not experienced arthritic pain in the wrist for two years”. The “reduction of calcium excretion” value [3] was 70+18% and the “carbonyl oxidation and protein nitration” value [4] was “reduction of carbonyl oxidation and protein nitration”.
